“And” between values parts separate entries of the source, which are not always exact repeats. Equal entries are not always repeated. The source made the active and inactive calls. How the calls were made is not given here.

This assay deals with in vivo angiogenesis, blood vessel count. In words: angiogenesis inhibition in living animals, in vivo study, HTS (AID 732).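 Further: zebrafish embryos dosed at one day post fertilization; 0% = reference inhibitor and 100% = plate mean.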 As to conditions: stronger effect = lower value;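 tested at 30 µM in the well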.

For `O=c1cc(-c2ccccc2)[nH]c2nc(Cl)ccc12`, the vessel count % control was 0% (inactive).

Take `N#C/C(=C\c1ccc(O)c(O)c1)C(=O)NCCc1ccccc1`: the vessel count % control was 115% (inactive).

Regarding `CN[C@H](CC(C)C)C(=O)N[C@H]1C(=O)N[C@@H](CC(N)=O)C(=O)N[C@H]2C(=O)N[C@H]3C(=O)N[C@H](C(=O)N[C@H](C(=O)O)c4cc(O)cc(O)c4-c4cc3ccc4O)[C@H](O)c3ccc(c(Cl)c3)Oc3cc2cc(c3O[C@@H]2O[C@H](CO)[C@@H](O)[C@H](O)[C@H]2O[C@H]2C[C@](C)(N)[C@H](O)[C@H](C)O2)Oc2ccc(cc2Cl)[C@H]1O`, the vessel count % control was 103% (inactive).

Consider `N=C(N)SCCc1cnc[nH]1`, for which the vessel count % control was 150% (inactive).

Take `CCn1nc(C(=O)O)c(=O)c2cc3c(cc21)OCO3`: the vessel count % control is 102% (inactive).

Take `CC(=O)NCCc1c[nH]c2ccc(O)cc12`: the vessel count % control was 101% (inactive).

As to `N=C(N)c1ccccc1`, the vessel count % control was 110% (inactive).

Take `NC/C=C/C(=O)O`: the vessel count % control was 97.5% (inactive).

Regarding `NC(Cc1ccc(Cl)cc1)C(=O)O` (configuration not stated), the vessel count % control was 103% (inactive).

For `O=C(CCCN1CCC2(CC1)C(=O)NCN2c1ccccc1)c1ccc(F)cc1`, the vessel count % control is 77.9% (inactive).

Take `CC(C)NCC(O)COc1ccc(CC(N)=O)cc1` (configuration not stated): the vessel count % control is 102% (inactive).

For the molecule `NC(=O)CN1CC(O)CC1=O` (configuration not stated), the vessel count % control is 90.1% (inactive).

Take `COc1ccccc1N1CCN(CCCCNS(=O)(=O)c2cccc3c(N(C)C)cccc23)CC1`: the vessel count % control was 67.5% (inactive).

With `CC1=C(CC(=O)O)c2cc(F)ccc2/C1=C\c1ccc(S(C)(=O)=O)cc1`, the vessel count % control was 112% (inactive).

`CCCCCCC/C=C\CCCCCCCCC(=O)O`: the vessel count % control is 106% (inactive).

`NC1CCc2cc(O)c(O)cc2C1` (configuration not stated): the vessel count % control is 94.8% (inactive).

For `Nc1ccc(N2C(=O)c3ccccc3C2=O)c(Cl)c1`, the vessel count % control is 78.4% (inactive).

Turning to `CCCCCCCCCCCCCC(=O)O[C@@H]1[C@@H](C)[C@@]2(O)[C@@H](C=C(CO)C[C@@]3(O)C(=O)C(C)=C[C@@H]23)C2C(C)(C)[C@@]21OC(C)=O` (some centres not stated), the vessel count % control is 0% (inactive).

Take `COc1ccccc1N1CCN(CCCNc2cc(=O)n(C)c(=O)n2C)CC1`: the vessel count % control was 111% (inactive).

For the molecule `Clc1ccc(C(c2ccccc2Cl)C(Cl)Cl)cc1` (configuration not stated), the vessel count % control was 92.7% (inactive).

With `O=C1C=CC(=O)C=C1`, the vessel count % control is 84.8% (inactive).

For the molecule `O=C(O)C1CCNCC1`, the vessel count % control was 99.7% (inactive).

With `O=c1c(O)c(-c2ccc(O)c(O)c2)oc2cc(O)cc(O)c12`, the vessel count % control was 115% (inactive).

With `CC(=O)O[C@H]1CC2(C)[C@@H](C[C@@H](O)[C@H]3[C@@]4(C)CC[C@@H](O)[C@@H](C)[C@@H]4CC[C@@]32C)C1=C(CCC=C(C)C)C(=O)O` (some centres not stated), the vessel count % control is 100% (inactive).

On to `CN1CCN(c2nc3cc(C(F)(F)F)ccc3n3cccc23)CC1`, for which the vessel count % control was 100% (inactive).

Consider `O=C(O)/C=C/C(O)c1ccc(Cl)cc1` (configuration not stated), for which the vessel count % control is 115% (inactive).

On to `FC(F)(F)c1cc(CO[C@H]2CCCN[C@H]2c2ccccc2)cc(C(F)(F)F)c1`, for which the vessel count % control was 91.5% (inactive).

In the case of `COc1ccc(CCN(C)CCCC(C#N)(c2cc(OC)c(OC)c(OC)c2)C(C)C)cc1OC` (configuration not stated), the vessel count % control was 102% (inactive).

Consider `CCN1C[C@]2(C)CC[C@H](O)[C@@]34C5C[C@@H]6[C@@H](OC)C[C@@](O)(C5[C@H]6O)[C@@H](CC23)C14` (some centres not stated), for which the vessel count % control is 76.7% (inactive).

Consider `COc1cc(CC(=O)O)ccc1O`, for which the vessel count % control was 116% (inactive).

Consider `CN[C@@H]1C[C@@H](c2ccc(Cl)c(Cl)c2)c2ccccc21`, for which the vessel count % control was 0% (inactive).

As for `CCCN1C[C@H](CSC)C[C@@H]2c3cccc4[nH]cc(c34)C[C@H]21`, the vessel count % control was 96.8% (inactive).

Turning to `CCCN1CCC[C@@H]2Cc3[nH]ncc3C[C@H]21`, the vessel count % control was 129% (inactive) and 112% (inactive).

In the case of `O=Nc1c(-c2c(O)[nH]c3ccccc23)[nH]c2ccc(Br)cc12`, the vessel count % control is 67.5% (inactive).

With `CCCCNc1ccc(C(=O)OCCN(C)C)cc1`, the vessel count % control is 100% (inactive).

Turning to `C[N+]1(C)C2CC(OC(=O)[C@H](CO)c3ccccc3)CC1C1OC12` (some centres not stated), the vessel count % control is 105% (inactive) and 146% (inactive).

As to `CC1C(=O)N(C)C(=O)c2nc[nH]c21` (configuration not stated), the vessel count % control is 98.5% (inactive).

Regarding `COc1ccc2c(c1)c(CC(=O)O)c(C)n2Cc1ccc(Cl)cc1`, the vessel count % control is 109% (inactive).

As to `O=c1[nH]cnc2[nH]ncc12`, the vessel count % control was 120% (inactive).

Consider `N[C@@H](CS(=O)O)C(=O)O`, for which the vessel count % control was 111% (inactive).

Consider `Cc1cc(N)c2ccccc2[n+]1CCCCCCCCCC[n+]1c(C)cc(N)c2ccccc21`, for which the vessel count % control is 100% (inactive).

As for `O=C1N(c2ccccc2)c2ccccc2C1(Cc1ccncc1)Cc1ccncc1`, the vessel count % control is 96.6% (inactive).

Take `CN1CCN(C2=Nc3cc(Cl)ccc3Nc3ccccc32)CC1`: the vessel count % control was 98.7% (inactive).

Take `NCCS(=O)O`: the vessel count % control was 107% (inactive).

On to `CC(N)=NCc1cccc(CN)c1`, for which the vessel count % control was 104% (inactive).

Regarding `N[C@H](C(=O)O)[C@H](O)C(=O)O`, the vessel count % control was 90.4% (inactive).

Consider `CC(N)=O`, for which the vessel count % control was 108% (inactive).

`CC(C)NC[C@H](O)COc1cccc2[nH]ccc12`: the vessel count % control is 97.6% (inactive) and 70.7% (inactive).

With `CCCCCC(O)CCCC(=O)O` (configuration not stated), the vessel count % control is 101% (inactive).

`O=C1C2C=CC=CC2=NC(=S)N1CCN1CCC(=C(c2ccc(F)cc2)c2ccc(F)cc2)CC1` (configuration not stated): the vessel count % control is 78.2% (inactive).

For the molecule `CN1CCc2cc(O)cc3c2[C@H]1Cc1ccc(O)c(O)c1-3`, the vessel count % control is 96.7% (inactive).

`CN(C)CCCN1c2ccccc2CCc2ccccc21`: the vessel count % control was 104% (inactive).

Consider `CCC1(c2ccccc2)C(=O)NCNC1=O`, for which the vessel count % control is 91.4% (inactive).

As for `CCN(CC)CCOC(=O)c1cc(Cl)c(N)cc1OC`, the vessel count % control was 114% (inactive).

As for `O=Nc1c(-c2c(O)[nH]c3ccc(F)cc23)[nH]c2ccccc12`, the vessel count % control is 48.1% (inactive).

With `CCN(CCCl)Cc1ccccc1Br`, the vessel count % control was 99.8% (inactive).

In the case of `Nc1nc2[nH]c(=O)cnc2c(=O)[nH]1`, the vessel count % control is 140% (inactive).

In the case of `OC[C@H]1O[C@@H](n2cnc3cncnc32)[C@H](O)[C@@H]1O`, the vessel count % control was 82.1% (inactive).

As for `CC[C@@]1(O)C(=O)OCc2c1cc1n(c2=O)Cc2cc3ccccc3nc2-1`, the vessel count % control is 0% (inactive).

`COc1cc(C=C(C#N)C#N)cc(O)c1O`: the vessel count % control is 114% (inactive).

In the case of `COc1cc2c(c(OC)c1OC)-c1ccc(OC)c(=O)cc1[C@@H](NC(C)=O)CC2`, the vessel count % control is 116% (inactive).

On to `O=Nc1c(-c2c(O)[nH]c3ccc(Cl)cc23)[nH]c2ccccc12`, for which the vessel count % control was 88.2% (inactive).

With `NC(CCCP(=O)(O)O)C(=O)O` (configuration not stated), the vessel count % control was 75.8% (inactive).

In the case of `CC/C(=C(\c1ccccc1)c1ccc(OCCN(C)C)cc1)c1ccccc1`, the vessel count % control was 64.7% (inactive).

Consider `OCC1O[C@H](O)C(Cl)C(O)C1O` (some centres not stated), for which the vessel count % control is 100% (inactive).

Regarding `C=CCN1CCC2(C)c3cc(O)ccc3CC1[C@@H]2C` (some centres not stated), the vessel count % control is 89.5% (inactive).

For `O=C1OC(=O)C2C3CCC(O3)C12` (configuration not stated), the vessel count % control was 111% (inactive).

Regarding `CCCNCC(O)COc1ccccc1C(=O)CCc1ccccc1` (configuration not stated), the vessel count % control is 102% (inactive).

Take `COc1cc(CCN)ccc1O`: the vessel count % control is 124% (inactive).

For `COC(=O)C(N)Cc1ccc(Cl)cc1` (configuration not stated), the vessel count % control was 82.4% (inactive).

With `O=S(=O)(O)C1CCNCC1`, the vessel count % control was 89.3% (inactive).

Regarding `CC(=O)c1ccc(S(=O)(=O)NC(=O)NC2CCCCC2)cc1`, the vessel count % control is 84.8% (inactive).

Consider `C[N+]1(C)C2CCC1CC(OC(=O)C(CO)c1ccccc1)C2` (configuration not stated), for which the vessel count % control is 77.4% (inactive) and 108% (inactive).

Turning to `CC[C@H](C)C(=O)O[C@H]1CCC=C2C=C[C@H](C)[C@H](CC[C@@H]3C[C@@H](O)CC(=O)O3)[C@H]21`, the vessel count % control is 88.5% (inactive).

As for `C[N+](C)(C)CCOC(N)=O`, the vessel count % control was 114% (inactive).

Regarding `C=Cc1c(C)c2cc3[nH]c(cc4nc(cc5nc(cc1[nH]2)C(C)=C5CCC(=O)O)C(CCC(=O)O)=C4C)c(C)c3C=C`, the vessel count % control was 112% (inactive).

On to `N=Nc1c(-c2c(O)[nH]c3c(Cl)cc(Cl)cc23)[nH]c2ccc(Br)cc12`, for which the vessel count % control was 53.5% (inactive).

Regarding `CC(/C=C/c1cccc(Oc2ccc(F)cc2)c1)N(O)C(N)=O` (configuration not stated), the vessel count % control was 100% (inactive).

As to `CCCCCCCC/C=C\CCCCCCCC(=O)NCCc1ccc(O)c(O)c1`, the vessel count % control is 115% (inactive).

Turning to `COc1ccc(CCN(C)CCCC(C#N)(c2ccc(OC)c(OC)c2)C(C)C)cc1OC` (configuration not stated), the vessel count % control was 118% (inactive).

Regarding `COc1ccc2[nH]cc(CCN)c2c1`, the vessel count % control was 108% (inactive).

In the case of `CN(C)C(N)=NCCC[C@H](N)C(=O)O`, the vessel count % control was 93.3% (inactive).

For the molecule `CC(C)NC[C@H](O)COc1ccc(CC(N)=O)cc1`, the vessel count % control was 86.6% (inactive).

Take `CNCCCC1c2ccccc2C=Cc2ccccc21`: the vessel count % control is 96% (inactive).

Consider `CC1CNCCN1S(=O)(=O)c1cccc2cnccc12` (configuration not stated), for which the vessel count % control was 97.5% (inactive) and 98.4% (inactive).

`CCCC(=O)NCCc1c2n(c3ccc(OC)cc13)CCCc1ccccc1-2`: the vessel count % control was 92.5% (inactive).

For the molecule `CC[N+](CC)(CC)CCOc1cccc(OCC[N+](CC)(CC)CC)c1OCC[N+](CC)(CC)CC`, the vessel count % control is 101% (inactive).

The values are drawn from PubChem BioAssay AID732 (Emory University Molecular Libraries Screening Center, 2007).
